{
  "source": "patent US9399637B2",
  "about": "“Substituted heteroaryl compounds and methods of use” (Calitor Sciences, LLC, priority 2014, dated 2016)",
  "key": {"FLT3 (h)": {"target": "T1, FLT3 (h) (Homo sapiens, UniProt P36888)", "T1 construct": "purchased Millipore UK Ltd (assays run there as a service)", "T1 sequence (P36888 27-993)": "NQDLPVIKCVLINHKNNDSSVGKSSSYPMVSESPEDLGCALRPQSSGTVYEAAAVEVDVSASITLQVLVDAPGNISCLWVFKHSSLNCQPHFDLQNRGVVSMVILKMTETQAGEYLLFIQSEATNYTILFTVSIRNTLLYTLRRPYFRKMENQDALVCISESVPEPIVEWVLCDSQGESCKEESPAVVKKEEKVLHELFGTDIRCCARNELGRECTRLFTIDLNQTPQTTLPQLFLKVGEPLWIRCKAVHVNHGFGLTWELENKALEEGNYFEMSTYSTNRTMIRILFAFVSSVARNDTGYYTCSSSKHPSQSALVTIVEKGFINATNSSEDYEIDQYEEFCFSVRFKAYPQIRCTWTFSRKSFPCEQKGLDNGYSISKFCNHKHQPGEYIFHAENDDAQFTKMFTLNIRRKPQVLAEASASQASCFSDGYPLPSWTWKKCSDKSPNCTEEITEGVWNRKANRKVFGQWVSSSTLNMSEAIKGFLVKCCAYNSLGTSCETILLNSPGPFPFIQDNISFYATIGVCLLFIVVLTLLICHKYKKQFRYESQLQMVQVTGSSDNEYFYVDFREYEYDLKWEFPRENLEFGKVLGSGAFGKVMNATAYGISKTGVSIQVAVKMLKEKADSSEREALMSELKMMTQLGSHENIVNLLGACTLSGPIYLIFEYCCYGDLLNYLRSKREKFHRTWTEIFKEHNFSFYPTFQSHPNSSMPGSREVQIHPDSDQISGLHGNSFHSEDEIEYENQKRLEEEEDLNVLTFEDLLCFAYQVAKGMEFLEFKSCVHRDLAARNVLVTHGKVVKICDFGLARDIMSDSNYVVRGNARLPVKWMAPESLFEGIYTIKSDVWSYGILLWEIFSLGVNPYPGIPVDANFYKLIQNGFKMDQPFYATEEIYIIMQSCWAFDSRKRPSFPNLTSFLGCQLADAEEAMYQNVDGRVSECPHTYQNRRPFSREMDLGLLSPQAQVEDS", "assay": "FLT3 kinase assay", "assay_type": "biochemical", "experimental": "Kinase assays can be performed by measurement of incorporation of γ-^33P ATP into immobilized myelin basic protein (MBP). High binding white 384 well plates (Greiner) are coated with MBP (Sigma #M-1891) by incubation of 60 μL/well of 20 μg/mL MBP in Tris-buffered saline (TBS; 50 mM Tris pH 8.0, 138 mM NaCl, 2.7 mM KCl) for 24 h at 4° C. Plates are washed 3× with 100 μL TBS. Kinase reactions are carried out in a total volume of 34 μL in kinase buffer (5 mM Hepes pH 7.6, 15 mM NaCl, 0.01% bovine gamma globulin (Sigma #I-5506), 10 mM MgCl2, 1 mM DTT, 0.02% TritonX-100). Compound dilutions are performed in DMSO and added to assay wells to a final DMSO concentration of 1%. Each data point is measured in duplicate, and at least two duplicate assays are performed for each individual compound determination. Enzyme is added to final concentrations of 10 nM or 20 nM, for example. A mixture of unlabeled ATP and γ-^33P ATP is added to start the reaction (2×10^6 cpm of γ-^33P ATP per well (3000 Ci/mmole) and 10 μM unlabeled ATP, typically. The reactions are carried out for 1 h at room temperature with shaking Plates are washed 7× with TBS, followed by the addition of 50 μL/well scintillation fluid (Wallac). Plates are read using a Wallac Trilux counter. This is only one format of such assays; various other formats are possible, as known to one skilled in the art. […]"}, "[1]": {"assay": "Compound stability in rat liver microsomes", "assay_type": "in vitro ADME", "settings": "pH 7.4; for half-life at 5 μM: rat liver microsomes 0.5 mg protein/mL, compound 5 μM, NADPH, 37° C., read-out: Rat T1/2; for CLint scaled at 5 μM: rat liver microsomes, in vivo CLint extrapolated", "experimental": "(§1) Human or rat liver microsomes incubations were conducted in duplicate in polypropylene tubes. The typical incubation mixtures consisted of human or rat liver microsomes (0.5 mg protein/mL), compounds of interest (5 μM) and NADPH (1.0 mM) in a total volume of 200 μL potassium phosphate buffer (PBS, 100 mM, pH 7.4). Compounds were dissolved in DMSO and diluted with PBS such that the final concentration of DMSO was 0.05%. The enzymatic reactions were commenced with the addition of […] after a 3-min preincubation and incubated in a water bath open to the air at 37° C. Reactions were terminated at various time points (0, 5, 10, 15, 30, 60 min) by adding equal volume of ice-cold acetonitrile. The samples were stored at […] until LC/MS/MS assays.\n(§2) The concentrations of compounds in the incubation mixtures of human or rat liver microsomes were determined by a LC/MS/MS method. The ranges of the linearity in the concentration range were determined for each tested compounds.\n(§3) A parallel incubation was performed using denatured microsomes as the negative control, and reactions were terminated at various time points (0, 15, 60 min) after incubation at 37° C.\n(§4) Dextromethorphan (70 μM) was selected as the positive control, and reactions were terminated at various time points (0, 5, 10, 15, 30, 60 min) after incubation at 37° C. Both positive and negative control samples were included in each assay to ensure the integrity of the microsomal incubation system.\n(§5) The concentrations of compounds in human or rat liver microsome incubations were plotted as a percentage of the relevant zero time point control for each reaction. The in vivo CLint were extrapolated (ref.: Naritomi, Y.; Terashita, S.; Kimura, S.; Suzuki, A.; Kagayama, A.; and Sugiyama, Y.; Prediction of human hepatic clearance from in vivo animal experiments and in vitro metabolic studies with liver microsomes from animals and humans. Drug Metab. Dispos., 2001, 29: 1316-1324)."}, "[2]": {"assay": "Compound stability in human liver microsomes", "assay_type": "in vitro ADME", "settings": "pH 7.4; for half-life at 5 μM: human liver microsomes 0.5 mg protein/mL, compound 5 μM, NADPH, 37° C., read-out: Human T1/2; for CLint scaled at 5 μM: human liver microsomes, in vivo CLint extrapolated", "experimental": "as §1, §2, §3, §4, §5"}},
  "data": [
    {"smiles": "Cc1c2ccc(Nc3ncc(Cl)c(NC4CC5CN(C(=O)CC#N)CC5C4)n3)cc2nn1C", "note": "(stereo not shown) [Ex. 4, 3-(5-((5-chloro-2-((2,3-dimethyl-2H-indazol-6-yl)amino)pyrimidin-4-yl)amino)hexahydrocyclopenta[c]pyrrol-2(1H)-yl)-3-oxopropanenitrile]", "values": [
      {"measurement": "IC50", "setting": "FLT3 (h)", "value": 545, "unit": "nM"},
      {"measurement": "half-life at 5 μM", "setting": "[1]", "value": 25.3, "unit": "min"},
      {"measurement": "CLint scaled at 5 μM", "setting": "[1]", "value": 98.3, "unit": "mL/min/kg"},
      {"measurement": "half-life at 5 μM", "setting": "[2]", "value": 14.3, "unit": "min"},
      {"measurement": "CLint scaled at 5 μM", "setting": "[2]", "value": 122, "unit": "mL/min/kg"}
    ]},
    {"smiles": "CC(=O)N1CCC2(CCC(Nc3nc(Nc4ccc5c(C)n(C)nc5c4)ncc3Cl)CC2)CC1", "note": "[Ex. 7, 1-(9-((5-chloro-2-((2,3-dimethyl-2H-indazol-6-yl)amino)pyrimidin-4-yl)amino)-3-azaspiro[5.5]undecan-3-yl)ethanone]", "values": [
      {"measurement": "IC50", "setting": "FLT3 (h)", "value": 3, "unit": "nM"},
      {"measurement": "half-life at 5 μM", "setting": "[1]", "value": 29.3, "unit": "min"},
      {"measurement": "CLint scaled at 5 μM", "setting": "[1]", "value": 84.8, "unit": "mL/min/kg"},
      {"measurement": "half-life at 5 μM", "setting": "[2]", "value": 42.9, "unit": "min"},
      {"measurement": "CLint scaled at 5 μM", "setting": "[2]", "value": 40.5, "unit": "mL/min/kg"}
    ]}
  ]
}
